The values that follow come from patent US20250230125A1 (The Board of Regents of The University of Texas System, priority 2022, published 2025).

The target in data set [1] is T1, CYP3A4 (Homo sapiens, UniProt P08684). Description: in vitro. The note with it: microsomes.
In another data set the target is T2, 5-HT3 (Homo sapiens, UniProt P46098).
T2 sequence (P46098 24-478): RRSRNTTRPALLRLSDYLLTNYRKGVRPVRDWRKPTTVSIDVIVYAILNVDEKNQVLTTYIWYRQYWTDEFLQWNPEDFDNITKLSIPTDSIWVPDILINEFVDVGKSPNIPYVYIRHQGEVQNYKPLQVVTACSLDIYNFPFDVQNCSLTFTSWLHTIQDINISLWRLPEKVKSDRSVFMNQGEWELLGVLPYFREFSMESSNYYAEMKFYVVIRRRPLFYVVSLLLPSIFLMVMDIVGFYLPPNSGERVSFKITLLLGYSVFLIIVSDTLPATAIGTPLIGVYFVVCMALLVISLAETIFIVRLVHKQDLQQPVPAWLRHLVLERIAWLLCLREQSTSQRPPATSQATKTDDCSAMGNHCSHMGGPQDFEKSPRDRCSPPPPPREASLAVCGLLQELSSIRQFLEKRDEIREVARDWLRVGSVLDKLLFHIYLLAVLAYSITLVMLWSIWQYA
In words: NIMH PDSP radioligand binding displacement, 5-HT3. The settings on record: radioligand [^3H]-LY278584. From the text: . To explore the off-target profile of the two compounds, the National Institute of Mental Health (NIMH) Psychoactive Drug Screening Program (PDSP) were utilized to assess in a broad-panel of GPCRs and monoamine transporters (Table 4). […]. [table]

The next data set relates to hMDRI-MDCKII cells. Description: MDCK-MDR1 membrane permeability and efflux. Type of data set: in vitro ADME.
Data set [2] addresses T3, CYP2C19 (Homo sapiens, UniProt P33261). The note with it: microsomes, 10 µM.
Data set [3] concerns the target T4, CYP2C8 (Homo sapiens, UniProt P10632).
T4 sequence (P10632 1-490): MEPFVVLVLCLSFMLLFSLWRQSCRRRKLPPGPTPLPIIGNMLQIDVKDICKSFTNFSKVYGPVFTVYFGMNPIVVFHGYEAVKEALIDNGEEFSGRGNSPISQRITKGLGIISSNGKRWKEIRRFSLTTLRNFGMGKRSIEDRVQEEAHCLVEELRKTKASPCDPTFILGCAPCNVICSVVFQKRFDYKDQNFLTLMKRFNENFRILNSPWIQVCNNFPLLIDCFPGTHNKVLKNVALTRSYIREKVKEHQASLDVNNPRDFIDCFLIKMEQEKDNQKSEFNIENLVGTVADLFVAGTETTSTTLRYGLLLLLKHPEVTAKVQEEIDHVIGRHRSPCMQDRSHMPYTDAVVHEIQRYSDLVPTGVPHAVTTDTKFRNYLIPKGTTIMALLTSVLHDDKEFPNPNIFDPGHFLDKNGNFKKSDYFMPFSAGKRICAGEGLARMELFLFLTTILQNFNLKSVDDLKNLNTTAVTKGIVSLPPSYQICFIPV
Description: in vitro. The settings on record: microsomes.

The target in data set [4] is T1, CYP3A4. The settings on record: microsomes, 10 µM.
Data set [5] has as its target T5, CYP2C9 (Homo sapiens, UniProt P11712). The note with it: microsomes, 10 µM.
In data set [6] the target is T6, CYP2B6 (Homo sapiens, UniProt P20813).
T6 sequence (P20813 1-491): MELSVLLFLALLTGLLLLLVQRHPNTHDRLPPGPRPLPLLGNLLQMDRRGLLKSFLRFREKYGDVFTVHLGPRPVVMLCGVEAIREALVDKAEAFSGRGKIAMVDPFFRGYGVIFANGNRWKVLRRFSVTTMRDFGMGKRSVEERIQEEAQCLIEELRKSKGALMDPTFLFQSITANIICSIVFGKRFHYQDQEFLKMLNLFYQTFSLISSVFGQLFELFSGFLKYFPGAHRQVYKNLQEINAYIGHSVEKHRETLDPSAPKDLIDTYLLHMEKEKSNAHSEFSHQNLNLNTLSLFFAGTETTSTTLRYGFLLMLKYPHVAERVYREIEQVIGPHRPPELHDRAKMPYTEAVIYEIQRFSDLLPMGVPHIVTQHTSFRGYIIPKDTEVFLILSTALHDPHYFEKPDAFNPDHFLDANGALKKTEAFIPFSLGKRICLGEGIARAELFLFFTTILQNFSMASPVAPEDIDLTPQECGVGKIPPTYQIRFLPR
Description: in vitro. The settings on record: microsomes.

Data set [7] concerns the target T3, CYP2C19. Description: in vitro. The settings on record: microsomes.
Data set [8] has as its target T6, CYP2B6. The settings on record: microsomes, 10 µM.
A short description of data set [9]: Rat liver microsomal intrinsic clearance. Type of data set: in vitro ADME. The note with it: rat liver microsomes.
For another data set, the target named is T7, CYP1A2 (Homo sapiens, UniProt P05177).
T7 sequence (P05177 1-516): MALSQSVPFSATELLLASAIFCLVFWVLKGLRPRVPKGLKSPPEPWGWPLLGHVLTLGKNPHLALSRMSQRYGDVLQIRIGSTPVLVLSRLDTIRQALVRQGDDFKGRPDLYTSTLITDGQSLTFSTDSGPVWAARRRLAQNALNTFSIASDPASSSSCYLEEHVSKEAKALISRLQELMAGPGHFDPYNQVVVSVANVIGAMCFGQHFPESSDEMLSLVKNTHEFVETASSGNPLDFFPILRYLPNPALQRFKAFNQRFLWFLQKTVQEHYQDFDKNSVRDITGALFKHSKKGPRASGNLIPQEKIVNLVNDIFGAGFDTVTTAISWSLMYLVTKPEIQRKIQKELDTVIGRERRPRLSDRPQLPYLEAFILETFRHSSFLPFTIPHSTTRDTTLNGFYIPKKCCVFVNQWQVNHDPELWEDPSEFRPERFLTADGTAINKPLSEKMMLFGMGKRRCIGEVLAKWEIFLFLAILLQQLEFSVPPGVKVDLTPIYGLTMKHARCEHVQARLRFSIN
In words: Human liver microsomes P450 inhibition, CYP1A2. On the technique in general: Microsomes from liver hold many membrane-bound enzymes, among them those of drug oxidation.

Data set [10] addresses T5, CYP2C9. In words: in vitro. The note with it: microsomes.
For data set [11], the target named is T8, CYP2D6 (Homo sapiens, UniProt P10635). In words: in vitro. The note with it: microsomes.
The target of data set [12] is T8, CYP2D6. The note with it: microsomes, 10 µM.
Data set [13] deals with T4, CYP2C8. The note with it: microsomes, 10 µM.

Molecules are shown by their SMILES. Where only a bound is given, the exact number is not on record here.

T3 sequence (P33261 whole entry): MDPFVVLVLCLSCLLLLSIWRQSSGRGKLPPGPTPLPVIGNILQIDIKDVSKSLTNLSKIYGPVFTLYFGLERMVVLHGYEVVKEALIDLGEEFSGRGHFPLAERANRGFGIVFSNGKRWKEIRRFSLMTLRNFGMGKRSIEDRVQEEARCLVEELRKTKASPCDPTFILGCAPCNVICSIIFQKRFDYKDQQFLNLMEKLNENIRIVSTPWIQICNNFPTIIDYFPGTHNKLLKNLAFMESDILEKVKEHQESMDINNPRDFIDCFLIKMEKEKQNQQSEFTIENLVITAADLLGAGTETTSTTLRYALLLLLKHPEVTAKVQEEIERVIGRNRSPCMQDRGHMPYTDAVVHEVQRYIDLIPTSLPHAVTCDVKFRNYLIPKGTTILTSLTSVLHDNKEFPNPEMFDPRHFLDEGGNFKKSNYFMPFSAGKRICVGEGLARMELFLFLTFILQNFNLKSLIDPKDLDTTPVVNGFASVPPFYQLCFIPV
T5 sequence (P11712 whole entry): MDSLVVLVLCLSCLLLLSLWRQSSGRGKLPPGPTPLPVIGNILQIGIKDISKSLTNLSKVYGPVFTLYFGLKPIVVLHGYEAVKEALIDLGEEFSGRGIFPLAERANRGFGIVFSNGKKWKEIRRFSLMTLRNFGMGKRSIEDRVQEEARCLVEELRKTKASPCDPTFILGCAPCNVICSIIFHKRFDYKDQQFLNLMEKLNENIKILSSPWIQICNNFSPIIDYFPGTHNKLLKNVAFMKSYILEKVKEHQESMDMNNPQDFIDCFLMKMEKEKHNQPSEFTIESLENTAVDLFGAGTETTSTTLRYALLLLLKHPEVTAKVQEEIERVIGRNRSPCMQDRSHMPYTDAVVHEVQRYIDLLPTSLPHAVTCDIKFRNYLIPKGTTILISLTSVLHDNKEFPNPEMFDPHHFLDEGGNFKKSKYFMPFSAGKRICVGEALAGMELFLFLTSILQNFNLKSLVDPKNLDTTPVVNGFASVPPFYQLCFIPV
T1 sequence (P08684 whole entry): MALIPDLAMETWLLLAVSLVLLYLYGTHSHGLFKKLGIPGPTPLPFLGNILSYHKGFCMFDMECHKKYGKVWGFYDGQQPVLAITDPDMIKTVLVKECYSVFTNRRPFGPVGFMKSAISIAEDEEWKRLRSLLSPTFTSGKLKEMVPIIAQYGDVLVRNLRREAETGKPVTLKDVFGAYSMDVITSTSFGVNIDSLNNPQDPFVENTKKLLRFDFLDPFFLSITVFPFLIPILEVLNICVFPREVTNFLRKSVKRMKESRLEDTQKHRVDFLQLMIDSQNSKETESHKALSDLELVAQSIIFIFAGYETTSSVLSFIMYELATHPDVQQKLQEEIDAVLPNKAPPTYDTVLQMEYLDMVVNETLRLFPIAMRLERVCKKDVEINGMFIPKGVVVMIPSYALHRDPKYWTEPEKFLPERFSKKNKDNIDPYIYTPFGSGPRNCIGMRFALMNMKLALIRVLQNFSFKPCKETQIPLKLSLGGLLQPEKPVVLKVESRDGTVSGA
T8 sequence (P10635 whole entry): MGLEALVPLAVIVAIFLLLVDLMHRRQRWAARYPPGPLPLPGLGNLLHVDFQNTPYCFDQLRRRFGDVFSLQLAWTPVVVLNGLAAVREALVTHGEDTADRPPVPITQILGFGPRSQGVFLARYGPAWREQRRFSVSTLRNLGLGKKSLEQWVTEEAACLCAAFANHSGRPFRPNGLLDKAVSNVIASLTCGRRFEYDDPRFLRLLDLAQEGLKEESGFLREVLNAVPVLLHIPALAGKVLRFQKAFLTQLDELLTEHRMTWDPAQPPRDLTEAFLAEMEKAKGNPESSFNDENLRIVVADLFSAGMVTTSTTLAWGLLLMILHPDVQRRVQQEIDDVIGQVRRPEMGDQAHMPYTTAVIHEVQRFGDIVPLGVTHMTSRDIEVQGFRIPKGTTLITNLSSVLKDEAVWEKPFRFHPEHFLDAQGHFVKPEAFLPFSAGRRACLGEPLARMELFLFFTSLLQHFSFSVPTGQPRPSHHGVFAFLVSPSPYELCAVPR

Take `CCCCCCCC/C=C\CCCCCCCC(=O)NC(CO)(CO)CO` [Compound 13, N-(1,3-dihydroxy-2-(hydroxymethyl)propan-2-yl)]: the inhibition at 10 µM against CYP3A4 [1] was < 20%; at 5-HT3 it was 5.63%; against CYP2C8 [3], < 20%; on CYP2B6 [6], > 50%; at CYP2C19 [7], < 20%; against CYP1A2 (human, microsomes), < 20%. Besides, the inhibition at 10 µM at CYP2C9 [10] and at CYP2D6 [11] was < 20% in each case. In addition, the PappB→A result in the data set with hMDRI-MDCKII cells (With Pgp inhibitor) is recorded as “PappB→A = 4.77 × 10^−6 cm/s”; with hMDRI-MDCKII cells (Without Pgp inhibitor), “PappB→A = 3.23 × 10^−6 cm/s”. Also, the “Inhibitory % CYP2C19” value on CYP2C19 [2] is given as 18.34%. The “Inhibitory % CYP3A4 (midazolam)” value on CYP3A4 [4] is recorded as 18.72%. Also, the “Inhibitory % CYP2C9” value on CYP2C9 [5] worked out at 21.2%. Further, the “Inhibitory % CYP2B6” value at CYP2B6 [8] is given as 53.31%. Besides, in data set [9], the “Liver microsomal clearance CLR” value was “CLR = 174.66 μL/min/mg”. Also, the “Inhibitory % CYP1A2” value on CYP1A2 (10 μM, human liver microsomes) is 3.4%. Besides, on CYP2D6 [12], the “Inhibitory % CYP2D6” value came out at 10.13%. In addition, the “Inhibitory % CYP2C8” value at CYP2C8 [13] came to 11.87%.

The inhibition is the change of the read-out against control, counted positive when it falls. High values mean a response far below the control, low ones a response near the control.
